Reference: US9079876B2, “Imidazole derivatives and preparation method and use thereof” (Beijing Orbiepharm Co., Ltd., priority 2010, dated 2015)

Experiments:
[1] = molecular target: T1, cyclooxygenase-1 (COX-1 enzyme) (Homo sapiens, UniProt P23219); experiment: Human whole blood in vitro activity assay, COX-1 (TXB2 by EIA); assay type: cell-based; conditions: read-out: IC50 (μg/mL) COX-1 (converted)
T1 construct: from tissue; host or cells: human whole blood without heparin (platelets) from healthy volunteers
T1 sequence (P23219 24-599): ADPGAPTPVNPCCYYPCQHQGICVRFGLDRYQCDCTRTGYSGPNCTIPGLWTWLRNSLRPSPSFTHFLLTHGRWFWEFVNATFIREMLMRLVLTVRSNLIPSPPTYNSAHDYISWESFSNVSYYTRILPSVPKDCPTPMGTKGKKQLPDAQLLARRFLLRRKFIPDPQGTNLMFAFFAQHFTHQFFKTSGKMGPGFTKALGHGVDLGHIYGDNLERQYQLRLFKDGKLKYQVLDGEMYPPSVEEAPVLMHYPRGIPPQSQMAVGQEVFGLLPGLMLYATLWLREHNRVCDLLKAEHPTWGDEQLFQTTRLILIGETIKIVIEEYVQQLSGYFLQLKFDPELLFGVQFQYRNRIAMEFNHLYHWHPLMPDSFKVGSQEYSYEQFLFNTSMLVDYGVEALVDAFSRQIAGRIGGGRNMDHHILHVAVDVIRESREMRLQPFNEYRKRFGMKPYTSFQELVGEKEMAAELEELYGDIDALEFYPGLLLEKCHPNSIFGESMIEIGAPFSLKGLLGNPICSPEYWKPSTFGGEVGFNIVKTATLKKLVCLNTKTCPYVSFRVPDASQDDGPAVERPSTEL
Procedure: Human whole blood in vitro activity study: inhibition of activity of cyclooxygenase-1 (COX-1 enzyme) and cyclooxygenase-2 (COX-2 enzyme) in human blood. […] The blood samples were divided into two parts: one was used for detecting COX-1 enzyme activity, and the other was used for detecting COX-2 enzyme activity. The compounds were dissolved in DMSO, and were prepared in advance into 2 μL solutions in respective concentrations of 500, 50, 5, 0.5, 0.05, 0.005, 0.0005 μg/mL. 200 μL whole blood without heparin was added in the tubes containing the compounds, and then incubated at 37° C. for 1 hour. The activity of COX-1 enzyme was detected by determining the amount of thromboxane B2 (TXB2) synthesized by platelet using an EIA kit. Samples tested without the compounds were negative controls. For COX-2, 200 μL whole blood with heparin was added in the tubes containing the compounds and in the tubes containing 10 μg/mL LPS. LPS control and blank control with solvent only were used respectively for determining the maximum value and the background value of the PGE2 produced therefrom. The samples were incubated at 37° C. for 24 hours, and then centrifuged to collect serum/plasma, which was stored at −80° C. for detection by an EIA kit. The EIA kit of Cayman Company was used, the amounts of TXB2 and PGE2 were determined in accordance to the manufacturer's instructions, and the activities of COX-1 and COX-2 were tested respectively.

[2] = tested on: rat paw swelling induced by carrageenan; experiment: Rat paw swelling induced by carrageenan (inflammation model); assay type: in vivo, Wistar rats
Procedure: In vivo test: observation of the effect of compound 1 on rat paw swelling induced by carrageenan (inflammation model evaluation)
50 rats were randomized into 5 groups, with 10 animals in each group.
The total volume prepared for each dose group was determined based on the actual weight of the animals. A corresponding volume of purified water was taken, and was added with a sample of the test compounds or of the positive control, to allow homogenous dispersion. Sodium carboxymethyl cellulose was subsequently added, to make a homogenous suspension without obvious agglomerates.
Methods: 50 Wistar rats ([…], 167-199 g) were used in the study, with 25 males and 25 females. They were randomized into 5 groups, i.e. model group, positive control group, compound 1: low, middle and high dose groups. […] 1 hour after intragastric administration, 0.1 ml 1% carrageenan was intradermally injected in the right hind plantar paw to induce inflammation. After induction of inflammation, paw plantar volume and paw thickness were measured every another hour, consecutively for six times. Paw swelling rate (%) and inhibition rate (%) were calculated.
Assay methods: volume of the rat right paw was determined using UGO Basile plethysmograph, and the liquid level was kept constant for in the same animal in each measurement; thickness of the right hind paw were measured at the depiction line in the central paw with a digital vernier caliper.
The group mean and standard deviation of paw swelling rate in each group of animals were calculated, and then the following statistical analysis was performed. The test level was 0.05, and both statistical significance and biological significance were considered in the result analysis.
Levene's Test was used for homogeneity of variance test. Single-factor analysis of variance (ANOVA) was used for statistical analysis, if no statistical significance (P>0.05) was found. Dunnett's test (parametric method) analysis was used for multiple comparison analysis, if ANOVA found statistical significance (P≦0.05).
If there was heterogeneity of variance (P≦0.05), then the Kruskal-Wallis test was used. If the test result of Kruskal-Wallis test was statistically significant (P<0.05), then Dunnett's test (non-parametric method) was used for multiple comparison analysis.

[3] = 7 mg/kg intragastric, 1 h after inflammation
[4] = 7 mg/kg intragastric, 2 h after inflammation
[5] = 7 mg/kg intragastric, 3 h after inflammation
[6] = 7 mg/kg intragastric, 4 h after inflammation
[7] = 7 mg/kg intragastric, 5 h after inflammation
[8] = 7 mg/kg intragastric, 6 h after inflammation
[9] = 10 mg/kg intragastric, 1 h after inflammation
[10] = 10 mg/kg intragastric, 2 h after inflammation
[11] = 10 mg/kg intragastric, 3 h after inflammation
[12] = 10 mg/kg intragastric, 4 h after inflammation
[13] = 10 mg/kg intragastric, 5 h after inflammation
[14] = 10 mg/kg intragastric, 6 h after inflammation
[15] = 14 mg/kg intragastric, 1 h after inflammation
[16] = 14 mg/kg intragastric, 2 h after inflammation
[17] = 14 mg/kg intragastric, 3 h after inflammation
[18] = 14 mg/kg intragastric, 4 h after inflammation
[19] = 14 mg/kg intragastric, 5 h after inflammation
[20] = 14 mg/kg intragastric, 6 h after inflammation

IC50 [1]: 39.5 µM
SMILES: CS(=O)(=O)c1ccc(-n2cnc(Cl)c2-c2ccccc2)nc1 [Compound 1, 2-(4-chloro-5-phenyl-1H-imidazol-1-yl)-5-(methylsulfonyl)pyridine]
inhibition rate of plantar paw thickness swelling [2, 3]: 27.44%
inhibition rate of plantar paw volume swelling [2, 3]: 0.00%
plantar paw thickness swelling rate [2, 3]: 7.97 ± 3.84%
plantar paw volume swelling rate [2, 3]: 11.62 ± 4.73%
inhibition rate of plantar paw thickness swelling [2, 4]: 63.92%
inhibition rate of plantar paw volume swelling [2, 4]: 27.91%
plantar paw thickness swelling rate [2, 4]: 5.72 ± 4.27 %
plantar paw volume swelling rate [2, 4]: 12.62 ± 4.15%
inhibition rate of plantar paw thickness swelling [2, 5]: 76.74%
inhibition rate of plantar paw volume swelling [2, 5]: 43.96%
plantar paw thickness swelling rate [2, 5]: 4.01 ± 3.33 %
plantar paw volume swelling rate [2, 5]: 11.87 ± 3.62 %
inhibition rate of plantar paw thickness swelling [2, 6]: 77.45%
inhibition rate of plantar paw volume swelling [2, 6]: 58.90%
plantar paw thickness swelling rate [2, 6]: 4.29 ± 4.47 %
plantar paw volume swelling rate [2, 6]: 11.14 ± 3.73 %
inhibition rate of plantar paw thickness swelling [2, 7]: 85.81%
inhibition rate of plantar paw volume swelling [2, 7]: 55.32%
plantar paw thickness swelling rate [2, 7]: 2.68 ± 3.82 %
plantar paw volume swelling rate [2, 7]: 12.53 ± 5.03 %
inhibition rate of plantar paw thickness swelling [2, 8]: 89.21%
inhibition rate of plantar paw volume swelling [2, 8]: 57.59%
plantar paw thickness swelling rate [2, 8]: 1.67 ± 4.28 %
plantar paw volume swelling rate [2, 8]: 11.75 ± 4.71 %
inhibition rate of plantar paw thickness swelling [2, 9]: 0.00%
inhibition rate of plantar paw volume swelling [2, 9]: 0.00%
plantar paw thickness swelling rate [2, 9]: 12.91 ± 4.89%
plantar paw volume swelling rate [2, 9]: 12.48 ± 5.01%
inhibition rate of plantar paw thickness swelling [2, 10]: 50.35%
inhibition rate of plantar paw volume swelling [2, 10]: 6.86%
plantar paw thickness swelling rate [2, 10]: 7.87 ± 3.91 %
plantar paw volume swelling rate [2, 10]: 16.30 ± 5.55%
inhibition rate of plantar paw thickness swelling [2, 11]: 60.54%
inhibition rate of plantar paw volume swelling [2, 11]: 24.73%
plantar paw thickness swelling rate [2, 11]: 6.80 ± 3.68 %
plantar paw volume swelling rate [2, 11]: 15.95 ± 5.92%
inhibition rate of plantar paw thickness swelling [2, 12]: 69.63%
inhibition rate of plantar paw volume swelling [2, 12]: 45.15%
plantar paw thickness swelling rate [2, 12]: 5.78 ± 3.69 %
plantar paw volume swelling rate [2, 12]: 14.87 ± 5.07 %
inhibition rate of plantar paw thickness swelling [2, 13]: 71.80%
inhibition rate of plantar paw volume swelling [2, 13]: 44.78%
plantar paw thickness swelling rate [2, 13]: 5.32 ± 3.99 %
plantar paw volume swelling rate [2, 13]: 15.48 ± 5.58 %
inhibition rate of plantar paw thickness swelling [2, 14]: 66.63%
inhibition rate of plantar paw volume swelling [2, 14]: 43.68%
plantar paw thickness swelling rate [2, 14]: 5.16 ± 3.94 %
plantar paw volume swelling rate [2, 14]: 15.61 ± 7.62 %
inhibition rate of plantar paw thickness swelling [2, 15]: 33.98%
inhibition rate of plantar paw volume swelling [2, 15]: 0.77%
plantar paw thickness swelling rate [2, 15]: 7.25 ± 4.10%
plantar paw volume swelling rate [2, 15]: 10.82 ± 4.28%
inhibition rate of plantar paw thickness swelling [2, 16]: 67.67%
inhibition rate of plantar paw volume swelling [2, 16]: 30.59%
plantar paw thickness swelling rate [2, 16]: 5.12 ± 3.74 %
plantar paw volume swelling rate [2, 16]: 12.15 ± 5.20%
inhibition rate of plantar paw thickness swelling [2, 17]: 77.77%
inhibition rate of plantar paw volume swelling [2, 17]: 42.44%
plantar paw thickness swelling rate [2, 17]: 3.83 ± 2.59 %
plantar paw volume swelling rate [2, 17]: 12.20 ± 5.19 %
inhibition rate of plantar paw thickness swelling [2, 18]: 79.53%
inhibition rate of plantar paw volume swelling [2, 18]: 48.46%
plantar paw thickness swelling rate [2, 18]: 3.90 ± 3.54 %
plantar paw volume swelling rate [2, 18]: 13.97 ± 6.25 %
inhibition rate of plantar paw thickness swelling [2, 19]: 86.47%
inhibition rate of plantar paw volume swelling [2, 19]: 53.52%
plantar paw thickness swelling rate [2, 19]: 2.55 ± 2.95 %
plantar paw volume swelling rate [2, 19]: 13.03 ± 4.88 %
inhibition rate of plantar paw thickness swelling [2, 20]: 84.04%
inhibition rate of plantar paw volume swelling [2, 20]: 59.93%
plantar paw thickness swelling rate [2, 20]: 2.47 ± 2.70 %
plantar paw volume swelling rate [2, 20]: 11.10 ± 4.42 %
inhibition of the paw swelling rate ([2]; low, middle and high dose groups (7, 10, 14 mg/kg), 4 hours after inflammation): above 30%
